Test results from patent publication US5914236A, “PCT-65 serotonin receptor” (United States of America, priority 1995, dated 1999).

Key:
PCT-65 receptor [1] = biological target: T1, PCT-65 receptor (Rattus norvegicus, UniProt P32305); assay: [3H]-LSD competition binding to PCT-65 receptor in membranes of transfected COS-7 cells; details: for Ki: competing with [3H]-LSD (1.5-2.2 nM), COS-7 membranes, pH 7.4, 37 °C, 60 min, geometric mean ± SEM (n=3)
T1 construct: expressed in transfected cells; host or cells: COS-7 cells (transient, calcium phosphate, pSRα-65)
T1 sequence (P32305 45-448): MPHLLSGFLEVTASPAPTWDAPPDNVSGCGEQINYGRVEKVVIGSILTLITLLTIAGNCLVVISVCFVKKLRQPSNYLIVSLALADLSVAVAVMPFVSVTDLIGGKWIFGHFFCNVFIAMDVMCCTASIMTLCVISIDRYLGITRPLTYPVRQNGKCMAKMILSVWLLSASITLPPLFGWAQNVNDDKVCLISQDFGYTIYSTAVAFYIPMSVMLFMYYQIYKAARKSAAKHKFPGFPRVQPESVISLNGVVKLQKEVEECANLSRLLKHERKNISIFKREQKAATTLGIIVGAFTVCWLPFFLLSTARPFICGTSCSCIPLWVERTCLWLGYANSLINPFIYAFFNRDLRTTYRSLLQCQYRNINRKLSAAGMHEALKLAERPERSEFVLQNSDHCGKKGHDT
Description: (§1) This plasmid construct (pSRα-65) was introduced into COS-7 cells by calcium phosphate-mediated transfection.

PCT-65 receptor [2] = biological target: T1, PCT-65 receptor; assay: [3H]-5-HT competition binding to PCT-65 receptor in membranes of transfected COS-7 cells; details: competing with [3H]-5-HT (1 nM), COS-7 membranes, 37 °C; geometric mean ± SEM (n=3)
Method: as §1
Specifically, transfected cells were scraped into PBS with 5 mM EDTA, spun, polytroned, spun, suspended in 100 mM Tris, 20 mM MgSO4, 1 mM EDTA, pH7.7. 0.5 ml of this solution containing 10-25 μg protein was added to 0.5 ml of a 2 mM ascorbic acid solution containing the ligand and drugs and incubated for 30 min at 37° C. Filtration was performed on GF/C paper (0.1% PEI solution pre-treatment) with a 10 ml rinse.

PCT-65 receptor [3] = biological target: T1, PCT-65 receptor; assay: Competition binding to PCT-65 receptor (radioligand not specified); details: for affinity for PCT-65 (in words): expressed in mammalian cells (COS-7)
5HT1A receptors = details: background; cited from earlier work
[4] = radioligand not given, read-out: Ki (compounds not in Table 1)

Row | Compound | Ki (PCT-65 receptor [1]) [µM] | Ki (PCT-65 receptor [2]) [µM] | also measured
1 | COc1ccc2[nH]cc(CCN(C)C)c2c1 [5-Methoxy-N,N-dimethytryptamine] | 0.0209 ± 0.00086 | 0.00826 ± 0.00073 | 
2 | CNS(=O)(=O)Cc1ccc2[nH]cc(CCN(C)C)c2c1 [Sumatriptan] |  | 0.251 ± 0.0361 | 
3 | CNCCCN1c2ccccc2CCc2ccccc21 [Desipramine] |  |  | Ki (PCT-65 receptor [3]): > 1.3 µM
4 | NCCc1c[nH]c2ccccc12 [Tryptamine] | 0.0329 ± 0.00076 | 0.0164 ± 0.00101 | 
5 | CC(C)n1c(=O)n(C(=O)NC2CC3CCC(C2)N3C)c2ccccc21 (stereo not drawn) [BIMU8] |  |  | Ki (PCT-65 receptor [3]): > 1.3 µM
6 | CCNC(C)Cc1cccc(C(F)(F)F)c1 (stereo not drawn) [Fenflurmine] |  |  | Ki (PCT-65 receptor [3]): > 1.3 µM
7 | CCN(CC)C(=O)[C@@H]1C=C2c3cccc4[nH]cc(c34)C[C@H]2N(C)C1 [LSD] |  |  | affinity for PCT-65 (in words) (PCT-65 receptor [3]): relatively high affinity
8 | Cc1nc2sccn2c(=O)c1CCN1CCC(=C(c2ccc(F)cc2)c2ccc(F)cc2)CC1 [Ritanserin] | 0.0217 ± 0.0021 | 0.015 ± 0.0034 | 
9 | CC1(C)CC(=O)N(CCCCN2CCN(c3ncccn3)CC2)C(=O)C1 [gepirone] |  |  | affinity for 5HT1A receptors in the brain (in words) (5HT1A receptors): high affinities
10 | c1ccc2c(N3CCNCC3)cccc2c1 [1(1-Napthyl)piperazine] | 0.0338 ± 0.00168 | 0.0184 ± 0.00077 | 
11 | CN1CCN(C2=Nc3ccccc3Oc3ccc(Cl)cc32)CC1 [Loxapine] | 0.172 ± 0.0078 | 0.133 ± 0.0361 | affinity for PCT-65 (in words) (PCT-65 receptor [3]): low affinity; affinity for PCT-65 (in words) (PCT-65 receptor [3]; listed as loxipine): high affinity
12 | CC(C)C[C@H]1C(=O)N2CCC[C@H]2[C@]2(O)O[C@](NC(=O)[C@@H]3C=C4c5cccc6[nH]c(Br)c(c56)C[C@H]4N(C)C3)(C(C)C)C(=O)N12 [Bromocriptine] | 0.0107 ± 0.00047 | 0.0488 ± 0.0079 | 
13 | COc1ccccc1N1CCN(CCCCN2C(=O)c3ccccc3C2=O)CC1 [NAN-190] |  |  | Ki (PCT-65 receptor [3]; [4]): > 1.3 µM
14 | CN1C2CCC1CC(NC(=O)n1c(=O)[nH]c3ccccc31)C2 (stereo not drawn) [DAU6215] |  |  | Ki (PCT-65 receptor [3]; [4]): > 1.3 µM
15 | NCCc1c[nH]cn1 [Histamine] |  |  | Ki (PCT-65 receptor [3]; [4]): > 1.3 µM
16 | O=C(c1ccc(F)cc1)C1CCN(CCn2c(=O)[nH]c3ccccc3c2=O)CC1 [Ketanserin] | 0.207 ± 0.0196 | 0.265 ± 0.0321 | 
17 | O=C1c2ccccc2S(=O)(=O)N1CCCCN1CCN(c2ncccn2)CC1 [ipsapirone] |  |  | affinity for 5HT1A receptors in the brain (in words) (5HT1A receptors): high affinities
18 | CN1[C@@H]2CC[C@H]1C[C@@H](OC(=O)c1cc(Cl)cc(Cl)c1)C2 [MDL7222] |  |  | Ki (PCT-65 receptor [3]; [4]): > 1.3 µM
19 | c1ccc2c(c1)OCC(C1=NCCN1)O2 (stereo not drawn) [Idazoxan] |  |  | Ki (PCT-65 receptor [3]; [4]): > 1.3 µM
20 | COc1ccccc1N1CCNCC1 [2-MPP] | 0.244 ± 0.0165 | 0.125 ± 0.0084 | 
21 | CN(C)CCC=C1c2ccccc2CCc2ccccc21 [Amitriptyline] | 0.124 ± 0.0134 | 0.0928 ± 0.0158 | Ki (PCT-65 receptor [3]): < 0.1 µM; affinity for PCT-65 (in words) (PCT-65 receptor [3]): high affinity

Row | Compound | Ki (PCT-65 receptor [1]) [µM] | Ki (PCT-65 receptor [2]) [µM] | also measured
22 | c1ccc2nc(N3CCNCC3)ccc2c1 [Quipazine] |  |  | Ki (PCT-65 receptor [3]; [4]): > 1.3 µM
23 | CCn1c(=O)n(C(=O)NC2CC3CCC(C2)N3C)c2ccccc21 (stereo not drawn) [BIMU1] |  |  | Ki (PCT-65 receptor [3]; [4]): > 1.3 µM
24 | NCCc1c[nH]c2ccc(C(N)=O)cc12 [5-Carboxamidotryptamine] | 0.00033 ± 1e-05 | 0.00016 ± 5e-05 | 
25 | CN1C[C@@H](NS(=O)(=O)N(C)C)C[C@@H]2c3cccc4c3c(cn4C)C[C@H]21 [Mesulergine] | 0.00713 ± 0.00039 | 0.0211 ± 0.00219 | affinity for PCT-65 (in words) (PCT-65 receptor [3]): relatively high affinity
26 | CC[C@@H](CO)NC(=O)[C@@H]1C=C2c3cccc4c3c(cn4C)C[C@H]2N(C)C1 [Methysergide] | 0.0126 ± 0.00084 | 0.0134 ± 0.0008 | 
27 | COc1cc(N)c(Cl)cc1C(=O)NC1CCN2CCCC1C2 (stereo not drawn) [BRL24294] |  |  | Ki (PCT-65 receptor [3]; [4]): > 1.3 µM
28 | CN1C[C@H](CNC(=O)OCc2ccccc2)C[C@@H]2c3cccc4c3c(cn4C)C[C@H]21 [Metergoline] | 0.00204 ± 0.00015 | 0.00621 ± 0.001 | potency in competition with [3H]-LSD compared with [3H]-5-HT (in words) (PCT-65 receptor [1]; relative to competition with [3H]-5-HT): somewhat greater potency
29 | COc1cc(N)c(Cl)cc1C(=O)NC1CN2CCC1CC2 (stereo not drawn) [Zacopride] |  |  | Ki (PCT-65 receptor [3]; [4]): > 1.3 µM
30 | NCCc1c[nH]c2ccc(O)cc12 [5-Hydroxytryptamine, 5-hydroxytryptamine] |  |  | affinity for PCT-65 (in words) (PCT-65 receptor [3]): high affinity
31 | CN1C2CCC1CC(NC(=O)c1nn(C)c3ccccc13)C2 (stereo not drawn) [LY-278584] |  |  | Ki (PCT-65 receptor [3]): > 1.3 µM
32 | CCCN1C[C@H](CSC)C[C@@H]2c3cccc4[nH]cc(c34)C[C@H]21 [Pergolide] | 0.00478 ± 0.00018 | 0.00101 ± 3e-05 | affinity for PCT-65 (in words) (PCT-65 receptor [3]): relatively high affinity
33 | CN(C)CCCC1(c2ccc(F)cc2)OCc2cc(C#N)ccc21 (stereo not drawn) [Citalopram] |  |  | Ki (PCT-65 receptor [3]): > 1.3 µM
34 | NCC(O)c1ccc(O)cc1 (stereo not drawn) [Octopamine] |  |  | Ki (PCT-65 receptor [3]): > 1.3 µM
35 | FC(F)(F)c1cccc(N2CCNCC2)c1 [TFMPP] | 0.533 ± 0.033 | 0.236 ± 0.0055 | 
36 | COc1ccc2[nH]cc(CCNC(C)=O)c2c1 [Melotonin] |  |  | Ki (PCT-65 receptor [3]): > 1.3 µM
37 | CC(C)NCC(O)COc1cccc2[nH]ccc12 (stereo not drawn) [Pindolol] |  |  | Ki (PCT-65 receptor [3]): > 1.3 µM
38 | Clc1cccc(N2CCNCC2)c1 [mCPP] | 0.352 ± 0.0549 | 0.256 ± 0.0099 | 
39 | CN1C2CCCC1CC(NC(=O)c1nn(C)c3ccccc13)C2 (stereo not drawn) [BRL43694] |  |  | Ki (PCT-65 receptor [3]; [4]): > 1.3 µM
40 | CCCN(CCC)C1CCc2cccc(O)c2C1 (stereo not drawn) [8-OH-DPAT] | 0.0354 ± 0.00524 | 0.035 ± 0.00562 | affinity for PCT-65 (in words) (PCT-65 receptor [3]): relatively low affinity
41 | NCCc1ccc(O)c(O)c1 [Dopamine] |  |  | Ki (PCT-65 receptor [3]; [4]): > 1.3 µM
